# Laboratory results from US10916331B2, “Predicting drug-target interactions and uses for drug repositioning and repurposing” (GEORGETOWN UNIVERSITY, priority 2015, dated 2021).
# How the values were obtained:
# [1] = molecular target: T1, ABL1(E255K)-phosphorylated (Homo sapiens, UniProt P00519, E255K); assay: Kinomescan active site-directed competition binding assay; settings: MBZ at 10 μM, lower = stronger hit, read-out: Percent Control at 10 μM
# T1 construct: purchased Discoverx (Kinomescan); host or cells: E. coli BL21-derived host (T7 phage) or HEK-293
# Protocol: (§1) Kinase assays were performed using Kinomescan, by Discoverx, CA, USA and Caliper LabChip 3000 by Caliper Life sciences, USA as described previously. The determination of MBZ thermodynamic binding affinities (Kd) to kinase targets predicted by RepurposeVS was performed by using active site-directed competition binding. Kinase-tagged T7 phage strains were grown in parallel in 24-well blocks in an E. coli host derived from the BL21 strain. E. coli bacteria were grown to log-phase and infected with T7 phage from a frozen stock (multiplicity of infection=0.4) and incubated with shaking at 32° C. until lysis (90-150 minutes). The lysates were centrifuged (6,000×g) and filtered (0.2 μm sieves) to remove cell debris. The remaining kinases were produced in HEK-293 cells and subsequently tagged with DNA for qPCR detection. […] The liganded beads were blocked with excess biotin and washed with blocking buffer (SeaBlock (Pierce), 1% BSA, 0.05% Tween 20, 1 mM DTT) to remove unbound ligand and to reduce non-specific phage binding. Binding reactions were assembled by combining kinases, control liganded affinity beads, and mebendazole in 1× binding buffer (20% SeaBlock, 0.17×PBS, 0.05% Tween 20, 6 mM DTT). Mebendazole was prepared as 40× stocks in 100% DMSO and directly diluted into the assay. All reactions were performed in polypropylene 384-well plates in a final volume of 0.04 ml. The assay plates were incubated at room temperature with shaking for 1 hour and the affinity beads were washed with wash buffer (lx PBS, 0.05% Tween 20). […] The kinase concentration in the eluates was measured by qPCR. […] The amount of kinase captured in test versus control samples were measured by using a quantitative, precise and ultra-sensitive qPCR method that detects the associated DNA label. Using (13), the primary screen binding interactions are reported as ‘% Ctrl’ (Percent kinase remaining activity), where lower numbers indicate stronger hits. In a similar manner, binding constants (Kd) for mebendazole-kinase interactions are calculated by measuring the amount of kinase captured as a function of the mebendazole concentration in a dose response manner. […] Binding constants (Kd) were calculated with a standard dose-response curve (drug dose (x-axis)−qPCR signal (y-axis)) using the Hill equation in (14) with the Hill Slope set to −1.
# [2] = molecular target: T2, ABL1(T315I)-phosphorylated (Homo sapiens, UniProt P00519, T315I); assay: as above; settings: MBZ at 10 μM, lower = stronger hit, read-out: Percent Control at 10 μM
# T2 construct: purchased Discoverx (Kinomescan); host or cells: E. coli BL21-derived host (T7 phage) or HEK-293
# Protocol: as §1
# ABL1-nonphosphorylated = molecular target: T3, ABL1-nonphosphorylated (Homo sapiens, UniProt P00519); assay: as above; settings: MBZ at 10 μM, lower = stronger hit, read-out: Percent Control at 10 μM
# T3 construct: purchased Discoverx (Kinomescan); host or cells: E. coli BL21-derived host (T7 phage) or HEK-293
# Protocol: as §1
# ABL1-phosphorylated = molecular target: T4, ABL1-phosphorylated (Homo sapiens, UniProt P00519); assay: as above
# T4 construct: purchased Discoverx (Kinomescan); host or cells: E. coli BL21-derived host (T7 phage) or HEK-293
# Protocol: as §1
# CDK7 = molecular target: T5, CDK7 (Homo sapiens, UniProt P50613); assay: as above
# T5 construct: purchased Discoverx (Kinomescan); host or cells: E. coli BL21-derived host (T7 phage) or HEK-293
# T5 sequence (P50613 whole entry): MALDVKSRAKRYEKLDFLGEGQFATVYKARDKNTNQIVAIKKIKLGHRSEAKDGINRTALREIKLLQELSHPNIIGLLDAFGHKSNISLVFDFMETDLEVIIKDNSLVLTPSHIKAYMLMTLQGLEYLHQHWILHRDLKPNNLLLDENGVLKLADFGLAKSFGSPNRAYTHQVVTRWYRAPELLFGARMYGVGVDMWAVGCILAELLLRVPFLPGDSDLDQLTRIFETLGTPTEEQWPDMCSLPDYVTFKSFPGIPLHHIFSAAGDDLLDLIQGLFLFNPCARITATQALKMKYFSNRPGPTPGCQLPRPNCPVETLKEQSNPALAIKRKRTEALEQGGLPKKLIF
# Protocol: as §1
# CSNK1D = molecular target: T6, CSNK1D (Homo sapiens, UniProt P48730); assay: as above; settings: MBZ at 10 μM, lower = stronger hit, read-out: Percent Control at 10 μM
# T6 construct: purchased Discoverx (Kinomescan); host or cells: E. coli BL21-derived host (T7 phage) or HEK-293
# T6 sequence (P48730 whole entry): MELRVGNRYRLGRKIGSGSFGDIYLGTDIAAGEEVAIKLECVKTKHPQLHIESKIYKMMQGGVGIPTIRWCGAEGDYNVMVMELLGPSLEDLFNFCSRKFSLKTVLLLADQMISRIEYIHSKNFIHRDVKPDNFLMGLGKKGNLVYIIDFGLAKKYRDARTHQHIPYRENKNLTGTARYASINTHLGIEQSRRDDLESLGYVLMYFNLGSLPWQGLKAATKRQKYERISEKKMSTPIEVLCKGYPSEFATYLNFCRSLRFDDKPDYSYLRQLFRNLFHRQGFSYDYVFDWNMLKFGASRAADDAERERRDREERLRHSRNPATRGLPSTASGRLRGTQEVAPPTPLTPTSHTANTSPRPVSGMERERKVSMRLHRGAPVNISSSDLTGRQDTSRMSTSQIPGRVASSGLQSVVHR
# Protocol: as §1
# DYRK1A = molecular target: T7, DYRK1A (Homo sapiens, UniProt Q13627); assay: as above; settings: MBZ at 10 μM, lower = stronger hit, read-out: Percent Control at 10 μM
# T7 construct: purchased Discoverx (Kinomescan); host or cells: E. coli BL21-derived host (T7 phage) or HEK-293
# Protocol: as §1
# DYRK1B = molecular target: T8, DYRK1B (Homo sapiens, UniProt Q9Y463); assay: as above
# T8 construct: purchased Discoverx (Kinomescan); host or cells: E. coli BL21-derived host (T7 phage) or HEK-293
# T8 sequence (Q9Y463 whole entry): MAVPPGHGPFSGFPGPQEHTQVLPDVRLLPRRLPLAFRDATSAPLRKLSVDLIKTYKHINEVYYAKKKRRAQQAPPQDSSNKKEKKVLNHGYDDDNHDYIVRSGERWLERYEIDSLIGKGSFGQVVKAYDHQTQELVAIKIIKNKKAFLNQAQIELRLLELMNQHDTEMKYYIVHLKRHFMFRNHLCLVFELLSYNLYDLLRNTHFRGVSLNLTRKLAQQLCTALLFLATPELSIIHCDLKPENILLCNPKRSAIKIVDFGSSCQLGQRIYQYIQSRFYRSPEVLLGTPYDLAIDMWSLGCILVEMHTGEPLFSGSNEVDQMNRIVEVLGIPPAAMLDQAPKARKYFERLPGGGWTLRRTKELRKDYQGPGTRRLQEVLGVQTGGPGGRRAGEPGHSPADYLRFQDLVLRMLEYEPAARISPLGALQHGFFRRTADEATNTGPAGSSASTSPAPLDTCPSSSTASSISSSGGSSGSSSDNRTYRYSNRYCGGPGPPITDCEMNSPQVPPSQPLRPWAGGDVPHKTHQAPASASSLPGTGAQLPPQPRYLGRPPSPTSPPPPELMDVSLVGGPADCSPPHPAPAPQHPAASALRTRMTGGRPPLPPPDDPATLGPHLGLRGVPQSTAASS
# Protocol: as §1
# GSK3B = molecular target: T9, GSK3B (Homo sapiens, UniProt P49841); assay: as above; settings: MBZ at 10 μM, lower = stronger hit, read-out: Percent Control at 10 μM
# T9 construct: purchased Discoverx (Kinomescan); host or cells: E. coli BL21-derived host (T7 phage) or HEK-293
# Protocol: as §1
# JAK3 = molecular target: T10, JAK3 (Homo sapiens, UniProt P52333); assay: as above; settings: MBZ at 10 μM, lower = stronger hit, read-out: Percent Control at 10 μM
# T10 construct: purchased Discoverx (Kinomescan); host or cells: E. coli BL21-derived host (T7 phage) or HEK-293
# Protocol: as §1
# JNK1 = molecular target: T11, JNK1 (Homo sapiens, UniProt P45983); assay: as above; settings: MBZ at 10 μM, lower = stronger hit, read-out: Percent Control at 10 μM
# T11 construct: purchased Discoverx (Kinomescan); host or cells: E. coli BL21-derived host (T7 phage) or HEK-293
# Protocol: as §1
# JNK2 = molecular target: T12, JNK2 (Homo sapiens, UniProt P45984); assay: as above
# T12 construct: purchased Discoverx (Kinomescan); host or cells: E. coli BL21-derived host (T7 phage) or HEK-293
# T12 sequence (P45984 whole entry): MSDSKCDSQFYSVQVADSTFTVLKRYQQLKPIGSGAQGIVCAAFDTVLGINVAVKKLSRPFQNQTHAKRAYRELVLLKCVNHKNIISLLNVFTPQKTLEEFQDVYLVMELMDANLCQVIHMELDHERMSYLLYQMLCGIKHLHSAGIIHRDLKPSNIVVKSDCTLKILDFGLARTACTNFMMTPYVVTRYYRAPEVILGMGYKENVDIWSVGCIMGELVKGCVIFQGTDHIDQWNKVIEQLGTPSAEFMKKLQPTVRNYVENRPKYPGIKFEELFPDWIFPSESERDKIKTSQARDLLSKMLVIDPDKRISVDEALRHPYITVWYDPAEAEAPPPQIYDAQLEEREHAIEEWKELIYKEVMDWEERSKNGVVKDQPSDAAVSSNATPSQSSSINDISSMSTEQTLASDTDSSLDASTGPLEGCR
# Protocol: as §1
# JNK3 = molecular target: T13, JNK3 (Homo sapiens, UniProt P53779); assay: as above
# T13 construct: purchased Discoverx (Kinomescan); host or cells: E. coli BL21-derived host (T7 phage) or HEK-293
# T13 sequence (P53779 whole entry): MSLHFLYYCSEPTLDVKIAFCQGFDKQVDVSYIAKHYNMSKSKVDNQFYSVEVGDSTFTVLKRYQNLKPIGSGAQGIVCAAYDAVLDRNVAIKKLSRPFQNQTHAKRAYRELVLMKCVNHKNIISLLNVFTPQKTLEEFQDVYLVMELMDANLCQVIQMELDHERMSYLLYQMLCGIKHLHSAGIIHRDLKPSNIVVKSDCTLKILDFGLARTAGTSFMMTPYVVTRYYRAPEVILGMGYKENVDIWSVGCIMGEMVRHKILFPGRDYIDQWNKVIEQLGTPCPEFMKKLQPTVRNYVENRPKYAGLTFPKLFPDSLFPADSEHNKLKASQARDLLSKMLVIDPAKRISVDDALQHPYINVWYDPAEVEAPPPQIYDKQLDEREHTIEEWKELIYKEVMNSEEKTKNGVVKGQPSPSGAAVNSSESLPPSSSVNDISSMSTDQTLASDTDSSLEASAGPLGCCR
# Protocol: as §1
# KIT (D816V) = molecular target: T14, KIT (D816V) (Homo sapiens, UniProt P10721, D816V); assay: as above; settings: MBZ at 10 μM; listed as 'KIT (D816V)', value in parentheses; read-out: Percent Control at 10 μM
# T14 construct: purchased Discoverx (Kinomescan); host or cells: E. coli BL21-derived host (T7 phage) or HEK-293
# T14 sequence (P10721 26-976 D816V): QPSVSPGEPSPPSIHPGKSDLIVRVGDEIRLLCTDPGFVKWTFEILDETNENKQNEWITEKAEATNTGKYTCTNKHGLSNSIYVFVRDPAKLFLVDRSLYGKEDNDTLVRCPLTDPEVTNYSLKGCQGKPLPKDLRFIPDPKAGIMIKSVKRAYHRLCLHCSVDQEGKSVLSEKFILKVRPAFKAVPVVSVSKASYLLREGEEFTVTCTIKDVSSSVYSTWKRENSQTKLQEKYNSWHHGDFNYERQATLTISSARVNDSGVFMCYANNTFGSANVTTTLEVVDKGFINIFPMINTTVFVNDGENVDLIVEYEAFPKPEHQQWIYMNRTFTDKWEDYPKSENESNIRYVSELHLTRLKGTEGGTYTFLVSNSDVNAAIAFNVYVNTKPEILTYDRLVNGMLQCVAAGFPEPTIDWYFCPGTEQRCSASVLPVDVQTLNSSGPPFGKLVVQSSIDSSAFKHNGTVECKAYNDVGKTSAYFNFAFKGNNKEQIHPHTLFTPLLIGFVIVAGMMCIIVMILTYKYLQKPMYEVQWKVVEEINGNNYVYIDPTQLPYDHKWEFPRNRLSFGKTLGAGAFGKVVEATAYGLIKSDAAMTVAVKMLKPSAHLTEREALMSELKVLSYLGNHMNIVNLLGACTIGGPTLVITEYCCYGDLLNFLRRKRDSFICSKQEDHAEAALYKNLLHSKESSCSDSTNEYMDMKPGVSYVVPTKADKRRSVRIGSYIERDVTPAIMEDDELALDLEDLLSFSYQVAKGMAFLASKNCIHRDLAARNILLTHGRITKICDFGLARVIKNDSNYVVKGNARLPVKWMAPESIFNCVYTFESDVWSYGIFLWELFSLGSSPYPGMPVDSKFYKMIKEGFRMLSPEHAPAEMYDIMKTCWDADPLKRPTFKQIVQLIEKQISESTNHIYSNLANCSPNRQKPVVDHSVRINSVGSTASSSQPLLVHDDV
# Protocol: as §1
# KIT = molecular target: T15, KIT (Homo sapiens, UniProt P10721); assay: as above; settings: listed as 'KIT (D816V)'
# T15 construct: purchased Discoverx (Kinomescan); host or cells: E. coli BL21-derived host (T7 phage) or HEK-293
# T15 sequence (P10721 26-976): as the sequence (P10721 26-976 D816V) above, with V791D counted along it
# Protocol: as §1
# MET = molecular target: T16, MET (Homo sapiens, UniProt P08581); assay: as above; settings: MBZ at 10 μM, lower = stronger hit, read-out: Percent Control at 10 μM
# T16 construct: purchased Discoverx (Kinomescan); host or cells: E. coli BL21-derived host (T7 phage) or HEK-293
# Protocol: as §1
# P38-alpha = molecular target: T17, P38-alpha (Homo sapiens, UniProt Q16539); assay: as above
# T17 construct: purchased Discoverx (Kinomescan); host or cells: E. coli BL21-derived host (T7 phage) or HEK-293
# T17 sequence (Q16539 whole entry): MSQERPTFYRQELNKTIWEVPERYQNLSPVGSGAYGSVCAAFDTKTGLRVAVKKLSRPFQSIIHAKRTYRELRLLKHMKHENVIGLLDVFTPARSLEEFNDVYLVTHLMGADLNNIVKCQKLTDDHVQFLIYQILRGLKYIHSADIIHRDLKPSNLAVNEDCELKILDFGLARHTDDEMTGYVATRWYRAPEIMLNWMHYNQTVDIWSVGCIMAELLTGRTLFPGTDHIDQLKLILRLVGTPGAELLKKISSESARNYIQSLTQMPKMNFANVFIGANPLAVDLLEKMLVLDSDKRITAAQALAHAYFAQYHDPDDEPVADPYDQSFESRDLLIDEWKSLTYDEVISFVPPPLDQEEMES
# Protocol: as §1
# PDGFR-A = molecular target: T18, PDGFR-A (Homo sapiens, UniProt P16234); assay: as above
# T18 construct: purchased Discoverx (Kinomescan); host or cells: E. coli BL21-derived host (T7 phage) or HEK-293
# Protocol: as §1
# PDGFR-B = molecular target: T19, PDGFR-B (Homo sapiens, UniProt P09619); assay: as above
# T19 construct: purchased Discoverx (Kinomescan); host or cells: E. coli BL21-derived host (T7 phage) or HEK-293
# Protocol: as §1
# PIK3CG = molecular target: T20, PIK3CG (Homo sapiens, UniProt P48736); assay: as above; settings: MBZ at 10 μM, lower = stronger hit, read-out: Percent Control at 10 μM
# T20 construct: purchased Discoverx (Kinomescan); host or cells: E. coli BL21-derived host (T7 phage) or HEK-293
# Protocol: as §1
# SRC = molecular target: T21, SRC (Homo sapiens, UniProt P12931); assay: as above; settings: MBZ at 10 μM, lower = stronger hit, read-out: Percent Control at 10 μM
# T21 construct: purchased Discoverx (Kinomescan); host or cells: E. coli BL21-derived host (T7 phage) or HEK-293
# Protocol: as §1
# ULK2 = molecular target: T22, ULK2 (Homo sapiens, UniProt Q8IYT8); assay: as above; settings: MBZ at 10 μM, lower = stronger hit, read-out: Percent Control at 10 μM
# T22 construct: purchased Discoverx (Kinomescan); host or cells: E. coli BL21-derived host (T7 phage) or HEK-293
# Protocol: as §1
# VEGFR-2 = molecular target: T23, VEGFR-2 (Homo sapiens, UniProt P35968); assay: as above
# T23 construct: purchased Discoverx (Kinomescan); host or cells: E. coli BL21-derived host (T7 phage) or HEK-293
# T23 sequence (P35968 20-1356): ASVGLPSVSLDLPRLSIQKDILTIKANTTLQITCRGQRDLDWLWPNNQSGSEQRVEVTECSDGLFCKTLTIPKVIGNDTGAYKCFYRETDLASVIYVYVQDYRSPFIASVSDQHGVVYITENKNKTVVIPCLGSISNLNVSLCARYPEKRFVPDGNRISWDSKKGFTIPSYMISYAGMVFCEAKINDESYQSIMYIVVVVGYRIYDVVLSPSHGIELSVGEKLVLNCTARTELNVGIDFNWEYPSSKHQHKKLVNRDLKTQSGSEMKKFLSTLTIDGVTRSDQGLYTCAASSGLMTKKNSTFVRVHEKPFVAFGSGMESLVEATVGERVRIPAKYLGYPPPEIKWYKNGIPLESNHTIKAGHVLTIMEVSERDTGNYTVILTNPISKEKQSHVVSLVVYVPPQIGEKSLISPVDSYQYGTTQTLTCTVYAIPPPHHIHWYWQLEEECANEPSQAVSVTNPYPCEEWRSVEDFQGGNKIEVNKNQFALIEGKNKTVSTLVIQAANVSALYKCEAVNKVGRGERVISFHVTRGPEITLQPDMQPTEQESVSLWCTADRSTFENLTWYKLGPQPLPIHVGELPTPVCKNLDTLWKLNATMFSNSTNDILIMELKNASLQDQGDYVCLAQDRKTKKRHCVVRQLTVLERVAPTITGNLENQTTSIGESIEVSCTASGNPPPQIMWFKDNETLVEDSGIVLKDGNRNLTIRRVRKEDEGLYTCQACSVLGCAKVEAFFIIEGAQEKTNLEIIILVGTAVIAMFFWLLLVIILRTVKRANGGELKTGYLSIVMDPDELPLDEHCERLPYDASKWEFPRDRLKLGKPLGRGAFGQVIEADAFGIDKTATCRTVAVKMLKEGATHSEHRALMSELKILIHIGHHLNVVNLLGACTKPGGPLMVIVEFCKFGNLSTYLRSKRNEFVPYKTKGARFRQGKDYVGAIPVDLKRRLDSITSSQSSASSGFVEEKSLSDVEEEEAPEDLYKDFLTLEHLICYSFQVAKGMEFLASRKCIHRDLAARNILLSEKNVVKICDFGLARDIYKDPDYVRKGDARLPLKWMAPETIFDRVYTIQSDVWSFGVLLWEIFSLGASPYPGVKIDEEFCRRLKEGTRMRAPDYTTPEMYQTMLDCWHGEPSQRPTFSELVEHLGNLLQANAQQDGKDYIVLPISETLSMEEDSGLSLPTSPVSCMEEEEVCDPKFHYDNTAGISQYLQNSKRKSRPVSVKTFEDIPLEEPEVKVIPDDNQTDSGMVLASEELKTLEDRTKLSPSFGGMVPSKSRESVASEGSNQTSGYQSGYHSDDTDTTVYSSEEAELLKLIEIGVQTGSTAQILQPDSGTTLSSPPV
# Protocol: Kinase-tagged T7 phage strains were grown in parallel in 24-well blocks in an E. coli host derived from the BL21 strain. […] The remaining kinases were produced in HEK-293 cells and subsequently tagged with DNA for qPCR detection. […] The liganded beads were blocked with excess biotin and washed with blocking buffer (SeaBlock (Pierce), 1% BSA, 0.05% Tween 20, 1 mM DTT) to remove unbound ligand and to reduce non-specific phage binding. […] All reactions were performed in polypropylene 384-well plates in a final volume of 0.04 ml. […] The kinase concentration in the eluates was measured by qPCR.
# An 11-point 3-fold serial dilution of each test compound was prepared in 100% DMSO at 100× final test concentration and subsequently diluted to 1× in the assay (final DMSO concentration=1%).
# hookworm tubulin = settings: background statement; cited from earlier work
# mammalian tubulin = settings: background statement; cited from earlier work
# [3] = 11-point dose response, read-out: Binding Affinity (Kd)
# [4] = MBZ at 10 μM, lower = stronger hit, read-out: Percent Control at 10 μM
structure (smiles),measurement,setting,value
"COC(=O)Nc1nc2ccc(C(=O)c3ccccc3)cc2[nH]1 [MBZ, mebendazole]",remaining binding at 10 µM,[1],2.2%
same,remaining binding at 10 µM,[2],3.2%
same,remaining binding at 10 µM,ABL1-nonphosphorylated,2%
same,Kd,ABL1-phosphorylated; [3],120 nM
same,remaining binding at 10 µM,ABL1-phosphorylated; [4],0.9%
same,Kd,CDK7; [3],390 nM
same,remaining binding at 10 µM,CDK7; [4],11%
same,remaining binding at 10 µM,CSNK1D,36%
same,remaining binding at 10 µM,DYRK1A,34%
same,Kd,DYRK1B; [3],340 nM
same,remaining binding at 10 µM,DYRK1B; [4],5.6%
same,remaining binding at 10 µM,GSK3B,35%
same,remaining binding at 10 µM,JAK3,29%
same,remaining binding at 10 µM,JNK1,14%
same,Kd,JNK2; [3],1090 nM
same,remaining binding at 10 µM,JNK2; [4],9.6%
same,Kd,JNK3; [3],410 nM
same,remaining binding at 10 µM,JNK3; [4],3%
same,remaining binding at 10 µM,KIT (D816V),33%
same,remaining binding at 10 µM,"KIT; MBZ at 10 μM, value outside parentheses, read-out: Percent Control at 10 μM",7.4%
same,Kd,KIT; [3],750 nM
same,remaining binding at 10 µM,MET,32%
same,Kd,P38-alpha; [3],1660 nM
same,remaining binding at 10 µM,P38-alpha; [4],17%
same,Kd,PDGFR-A; [3],820 nM
same,remaining binding at 10 µM,PDGFR-A; [4],7.8%
same,Kd,PDGFR-B; [3],660 nM
same,remaining binding at 10 µM,PDGFR-B; [4],3.2%
same,remaining binding at 10 µM,PIK3CG,18%
same,remaining binding at 10 µM,SRC,34%
same,remaining binding at 10 µM,ULK2,30%
same,Kd,VEGFR-2; [3],3600 nM
same,remaining binding at 10 µM,VEGFR-2; [4],30%
same,inhibition of hookworm tubulin,hookworm tubulin,potent nanomolar inhibition
same,potency on mammalian tubulin relative to hookworm tubulin (fold less),mammalian tubulin,1000 ×
